The text below walks through data of patent publication US7749539B2, “Polymeric formulations for drug delivery” (Efrat Biopolymers Ltd., priority 2000, dated 2010).

Series [1] can be described thus: In vitro release of drug combinations from liquid poly(sebacic-ricinoleic ester anhydride). The series is classed as physicochemical. To be noted: for release in combination compared with the drug alone: 1:1 w/w mixture of cisplatin or carboplatin with paclitaxel. The source says: The combination of two or more anticancer agents in the polymer implant was investigated. The release of a combination of drugs from liquid formulations of poly(sebacic-ricinoleic ester anhydride) was studied using a 1:1 w/w mixture of cisplatin or carboplatin with paclitaxel.

Series [2] is described as follows: Release of peptides from liquid poly(SA-RA) 30:70. It counts as physicochemical. To be noted: 200 mg in 800 mg poly(SA-RA) 30:70, phosphate buffer pH7.4, 37°C. The protocol: Insulin powder (200 mg) was mixed in liquid poly(SA-RA) 30:70 (800 mg) at room temperature. The uniform formulation was added in buffer solution (100 mg in 50 ml phosphate buffer pH7.4 at 37° C.) and the release of insulin to the solution was determined by HPLC. A constant release of insulin for more than 30 days was obtained.

For series [3] the following is noted: intravenous injection, cited from earlier work.

As to `N.N.[Cl][Pt][Cl]` [cisplatin], in series [1], the “release in combination compared with the drug alone” value is reported as “slower”.
For the molecule rapamycine, in series [1] (incorporated along with paclitaxel or other anticancer agents), the “release of co-incorporated drug from the device” value was “released constantly”.
As to “Insulin: Insulin powder mixed in liquid poly(SA-RA) 30:70”, in series [2], the “duration of constant release” value is “more than 30 days”.
`N.N.O=C([O-])C1(C(=O)[O-])CCC1.[Pt+2]` [carboplatin]: the “release in combination compared with the drug alone” value in series [1] was “slower”.
With `CC(=O)O[C@H]1C(=O)[C@@]2(C)[C@H]([C@H](OC(=O)c3ccccc3)[C@]3(O)C[C@H](OC(=O)[C@H](O)[C@@H](NC(=O)c4ccccc4)c4ccccc4)C(C)=C1C3(C)C)[C@]1(OC(C)=O)CO[C@@H]1C[C@@H]2O` [paclitaxel], in series [1], the “release in combination compared with the drug alone” value is on record as “slightly enhanced”. The “maximum tolerated dose (MTD)” value in series [3] (female SPF C3H/HeNcrj mice) is on record as 26 mg/kg. In addition, in series [3] (mice), the “dose at which death due to toxicity was observed” value is 30 mg/kg.
